Laboratory results taken from patent publication US20260315609A1, “MIXED VASOPRESSIN RECEPTOR AGONIST-ANTAGONIST FOR TREATING END-STAGE LIVER DISEASE AND COMPLICATIONS ASSOCIATED THEREOF” (FERRING B.V., priority 2022, published 2026).
Starred links: 1 amine or outer side, 2 acyl side, 3 side chain; linkers in the order of their positions; H or OH if unused. Positions of bridges follow the written chain, without caps; N, C: chain ends. Non-standard residues stand in square brackets, D forms with d. Residues, ends and D or L forms follow the SMILES beside them. Chains are numbered I, II in the order given. *: point of attachment. isoGln = NC(=O)[C@H](CCC(=O)[*:2])N[*:1]; εLys = N[C@@H](CCCCN[*:1])C(=O)[*:2]; Dab = NCC[C@H](N)C(=O)O; PhAc = O=C(Cc1ccccc1)*

Experiments:
[1] = Metabolite pattern (M1, M5) in human plasma after i.v. infusion and s.c. injection; format: in vivo
Protocol: Urinalysis was performed locally by means of a dip-stick test. […] In case any result of the dipstick was abnormal and clinically significant, a new urine test was to be performed. If the abnormal result was confirmed, further examination could be initiated at the discretion of the Investigator. Clinically significant abnormal findings were reported as AEs. The metabolite pattern of Compound 1 in plasma and urine were measured.
In some instances, an objective of the study was to investigate metabolite pattern of Compound 1 in plasma and urine.
Due to analytical method interference, it was not possible to analyses for metabolites in human urine. After i.v. administration, the metabolite M1 was present only at low concentrations in one subject in the male and 4 subjects in the female dose group 0.6 mg, while it was present in all females and 5 of the 6 males in the 0.9 mg dose group, albeit with few exceptions below LOQ (FIG. 44, panel A).

[2] = Effect of buffer concentration on bioavailability and M1 formation after SC (bolus) injection in rats; format: in vivo, rat; details: s.c. (bolus)
[3] = Safety and tolerability in healthy rats; format: in vivo, rat
Protocol: Rat models were used as a model to assess PK/PD of Compound 1.
Four adult male Sprague Dawley rats were catheterized via the carotid artery (for blood collection). […] Blood samples were collected at nominal times of 5, 10, 20, 40, 60, 90, 120, 180, 240, and 300 min after administration using an automated blood sampling system as described above. Plasma was prepared from whole blood using K2EDTA as anticoagulant. Subsequent bioanalysis of samples included compound extraction and plasma concentration determination using standard LC/MS methods.
The study was performed using six adult male Sprague Dawley rats, aged ~11 weeks. The pressure catheter was a polyurethane tubing that extended out of the device body and was inserted into the lower abdominal aorta. A postoperative injection of analgesia (flunixin, 5 mg per animal; Finadyne®, Schering-Plough) was given once immediately after implantation, and once at an interval of 24 h. The surgical wounds were disinfected with povidone iodine (Vétédine®, Vetoquinol SA) for 4 consecutive days. After surgery, the animals recovered for ~2 weeks before first study administration (day 0).
On the days of administration, animals were examined before and immediately after administration, and at least once after dosing (after the ≥4-h analysis time point) to detect any clinical signs or reaction to administration. A full clinical examination was performed weekly.

[4] = test system: CCl4-induced rat model of cirrhosis and ascites; test: CCl4-induced cirrhosis and ascites rats, cohort 1 (SC bolus b.i.d. 3 days), renal excretory function; format: in vivo
Protocol: Animals: 90 male Wistar rats (Charles River Laboratories, Espana S.A) weighing 200-220 grams at the time of receipt were subjected to a cirrhosis induction program; high dose CCl4 was administered by inhalation twice weekly (Monday and Friday) and phenobarbital (0.3 g/L) was added to drinking water. In some instances, liver damage in this model is caused by hepatotoxic CCl4 metabolites produced in the liver. In some instances, phenobarbital induction of the microsomal enzyme oxidizing system exaggerates the intensity of the hepatic necrosis. The data was collected from the treatment of 44 cirrhotic rats with ascites. Animals were allowed free access to food and water throughout the study.
The study consisted of 3 treatment cohorts, as detailed in Table 10. Animals developing and maintaining ascites for 2 weeks were randomly assigned to treatment groups. Ringer Braun saline solution was used as vehicle. IV bolus were administered via femoral veins.
This study was performed at the Hospital Clinic (Barcelona, Spain). Measurements and/or samples were collected for additional experimental parameters (e.g., water intake, urine osmolality, serum samples, tissue samples, etc.) but data are not reported.
Cohort 1: Animals were placed into metabolic cages for continuous urine collection and administered 100 μg/kg FE 204205 or vehicle by SC bolus for 3 days (see Table 3 for details). Measurements of body weight, urine volume, and urine sodium content were taken prior to treatment (Day 0) and daily over the course of treatment administration. After 3 days of treatment, the volume of ascites was measured by aspiration and the animals were sacrificed by isofluorane overdose.

CC[C@H](C)[C@@H]1NC(=O)[C@H](Cc2ccccc2)NC(=O)[C@@H](N)CSSC[C@@H](C(=O)N2CCC[C@H]2C(=O)N[C@@H](CCNC(=O)[C@@H](N)CCCCNC(=O)[C@H](CCCCNC(C)=O)NC(=O)CC[C@H](NC(=O)[C@H](CCCNC(=N)N)NC(=O)[C@@H]2CCCN2C(=O)[C@H](C)NC(=O)[C@H](CC(N)=O)NC(=O)[C@H](CCC(N)=O)NC(=O)[C@H](Cc2ccccc2)NC(=O)[C@@H](Cc2ccc(OC)cc2)NC(=O)Cc2ccccc2)C(N)=O)C(=O)NCC(N)=O)NC(=O)[C@H](CC(N)=O)NC(=O)[C@H](CCC(N)=O)NC1=O [Compound 1, Glycinamide, L-cysteinyl-L-phenylalanyl-L-isoleucyl-L-glutaminyl-L-asparaginyl-L-cysteinyl-L-prolyl-N4-(phenylacetyl-O-methyl-D-tyrosyl-L-phenylalanyl-L-glutaminyl-L-asparaginyl-L-alanyl-L-prolyl-L-arginyl-L-isoglutamyl-N5-acetyl-L-lysyl-L-ε-lysyl)-L-2,4-diaminobutyryl-, cyclic (1→6)-disulfide] (I: H-CFIQNCP[Dab]G-NH2 / II: PhAc-[dY](Me)FQNAPR[isoGln]K(Ac)[εLys]; disulfide I:1-I:6; amide I:8-II:C)
half-life ([1]; i.v.): ~4 h
half-life ([1]; s.c.): about 2 hours
conversion of Compound 1 to M1 ([1]; s.c. (bolus) injection, human): 80-90%
bioavailability ([2]; about 10 mM buffer): about 13%
bioavailability ([2]; about 100 mM buffer): about 37%
animals with local reaction at injection site ([3]; SC 4 and 20 mg/kg): three of the six
tolerability ([3]; SC bolus): well tolerated
bodyweight gain ([3]; SC, four administrations up to 20 mg/kg): did not influence bodyweight gain
deaths ([3]; SC, up to 20 mg/kg): no deaths occurred
tolerability ([3]; single SC, conscious rats, all tested dose levels): well tolerated at all tested dose levels
tolerability ([3]; single-dose IV bolus (cassette)): well tolerated
Ascites Volume ([4]; 100 μg/kg SC b.i.d., after 3 days (vehicle 18.6)): 6.0 mL
Body Weight ([4]; 100 μg/kg SC b.i.d., basal): 461 grs
Sodium Excretion ([4]; 100 μg/kg SC b.i.d., basal): 0.6 mEq/day
Urine Volume ([4]; 100 μg/kg SC b.i.d., basal): 9.7 mL/day
Body Weight ([4]; 100 μg/kg SC b.i.d., day 1): 402 grs
Sodium Excretion ([4]; 100 μg/kg SC b.i.d., day 1): 8.2 mEq/day
Urine Volume ([4]; 100 μg/kg SC b.i.d., day 1): 51.6 mL/day
Body Weight ([4]; 100 μg/kg SC b.i.d., day 2): 397 grs
Sodium Excretion ([4]; 100 μg/kg SC b.i.d., day 2): 1.1 mEq/day
Urine Volume ([4]; 100 μg/kg SC b.i.d., day 2): 21.8 mL/day
Body Weight ([4]; 100 μg/kg SC b.i.d., day 3): 396 grs
Sodium Excretion ([4]; 100 μg/kg SC b.i.d., day 3): 0.3 mEq/day
Urine Volume ([4]; 100 μg/kg SC b.i.d., day 3): 16.6 mL/day
effect on ascites ([4]; SC, three days): fully evacuated the ascites accumulated in the peritoneal cavity or markedly diminished ascites volume
